Results on 4 compounds are retold here after patent US5043166A, “Liposome/anthraquinone drug composition and method” (priority 1989, dated 1991).

Like-named read-outs stand apart in the source and are kept apart here.

Data set [1] is described as follows: peroxidation in liposomes with chelators. The format is physicochemical.
Data set [2] is described as follows: chemical modification of DXR in stored liposomes. The format is physicochemical. The following applies: stored anoxic 1 day at 4° C. Here is the method:
The liposomes were stored under anoxic conditions for 1 day at 4° C., as above. Chemical modification of the drug was detected both by fluorescence emission spectroscopy and by assaying the change in drug toward a more lipophilic species, as described in Section A above.

The conditions of data set [3]: Fe^3+; cited from earlier work.
The conditions of data set [4]: Ca^2+; cited from earlier work.
For data set [5] the following is noted: Mg^2+; cited from earlier work.
The conditions of data set [6]: Zn^2+; cited from earlier work.
For data set [7] the following is noted: Ni^2+; cited from earlier work.
For data set [8] the following is noted: Co^2+; cited from earlier work.
For data set [9] the following is noted: Cu^2+; cited from earlier work.
For data set [10] the following is noted: Fe^2+; cited from earlier work.
The conditions of data set [11]: in vivo; cited from earlier work.
The conditions of data set [12]: prior to or concurrent with DXR administration; cited from earlier work.

As for `O=C(O)CN(CCN(CC(=O)O)CC(=O)O)CCN(CC(=O)O)CC(=O)O` [DTPA], the “effect on anthraquinone modification in vitro” value in [1] (in the presence of lipids and ferric iron) is on record as “protective effect”.

For the compound `O=C(O)CN(CCN(CC(=O)O)CC(=O)O)CC(=O)O` [EDTA, ethylenediaminetetraacetic acid], the “effect on peroxidation damage in liposomes” value in [1] is recorded as “peroxidation-stimulating effect”.

As to `CC(=O)N(O)CCCCCNC(=O)CCC(=O)N(O)CCCCCNC(=O)CCC(=O)N(O)CCCCCN` [ferrioxamine, ferrioxamine B], the “protection against drug modification” value in [2] is given as “moderate protections”. In addition, the “Binding Affinity” value in data set [3] was 10^31; in data set [4], 10^2; in data set [5], 10^4; in data set [6], 10^11; in data set [7], 10^10; in data set [8] it was 10^11. For the same compound, the “Binding Affinity” value in data set [9] is given as 10^14; in data set [10] it was 10^10. For the same compound, the “safety for parenteral use in humans” value in [11] is “proven safe for parenteral use in humans”.

Take `Cc1c(C)c2c(c(C)c1O)CCC(C)(CCCC(C)CCCC(C)CCCC(C)C)O2` (stereo not drawn) [α-T, alpha-tocopherol]: in data set [2], the “protection against drug modification” value was “moderate protections”. For the same compound, the reduction of cardiotoxicity result in data set [12] is on record as “effective in reducing cardiotoxicity”.
